Results as given in ChEMBL document CHEMBL5523701, “Structure-based discovery of small molecule inhibitors of FKBP51-Hsp90 protein-protein interaction” (Eur J Med Chem, 2024).

Columns and labels:
[1] = molecular target: T1, Peptidyl-prolyl cis-trans isomerase FKBP4 (Homo sapiens, UniProt Q02790); experiment: Inhibition of GST-tagged human FKBP52 expressed in Escherichia coli BL21 (DE3) using NH2-EDASRMEEVD-COOH peptide as substrate preincubated for 15 mins followed by substrate addition measured after 15 mins by Alpha Screen assay
T1 sequence (Q02790 whole entry): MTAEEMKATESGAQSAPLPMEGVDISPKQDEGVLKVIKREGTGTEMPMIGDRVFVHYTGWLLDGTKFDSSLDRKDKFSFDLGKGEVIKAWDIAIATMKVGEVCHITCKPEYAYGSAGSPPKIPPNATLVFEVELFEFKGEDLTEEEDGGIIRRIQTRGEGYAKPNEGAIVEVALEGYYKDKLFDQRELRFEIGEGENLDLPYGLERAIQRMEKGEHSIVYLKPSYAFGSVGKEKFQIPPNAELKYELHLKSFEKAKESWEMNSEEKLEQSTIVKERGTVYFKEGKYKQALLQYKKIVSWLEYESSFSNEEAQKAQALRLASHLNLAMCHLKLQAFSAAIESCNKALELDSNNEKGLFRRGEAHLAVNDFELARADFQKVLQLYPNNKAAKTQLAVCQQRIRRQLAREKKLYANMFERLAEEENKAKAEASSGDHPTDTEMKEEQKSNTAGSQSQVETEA

[2] = molecular target: T2, Serine/threonine-protein phosphatase 5 (Homo sapiens, UniProt P53041); experiment: Inhibition of GST-tagged human PP5 expressed in Escherichia coli BL21 (DE3) using NH2-EDASRMEEVD-COOH peptide as substrate preincubated for 15 mins followed by substrate addition measured after 15 mins by Alpha Screen assay
T2 sequence (P53041 whole entry): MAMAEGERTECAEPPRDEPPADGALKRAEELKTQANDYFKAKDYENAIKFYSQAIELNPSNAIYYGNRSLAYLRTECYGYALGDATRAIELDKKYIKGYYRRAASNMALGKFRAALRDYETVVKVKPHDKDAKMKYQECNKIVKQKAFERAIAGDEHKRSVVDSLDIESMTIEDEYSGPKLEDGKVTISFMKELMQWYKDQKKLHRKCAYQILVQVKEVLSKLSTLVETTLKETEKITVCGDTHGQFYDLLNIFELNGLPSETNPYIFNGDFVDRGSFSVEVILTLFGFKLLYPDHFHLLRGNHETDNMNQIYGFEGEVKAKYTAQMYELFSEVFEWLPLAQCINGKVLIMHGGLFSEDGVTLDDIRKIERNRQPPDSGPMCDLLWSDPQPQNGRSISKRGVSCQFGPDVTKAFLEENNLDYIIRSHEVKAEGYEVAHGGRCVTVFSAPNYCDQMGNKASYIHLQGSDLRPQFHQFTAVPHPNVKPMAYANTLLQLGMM

[3] = molecular target: T3, E3 ubiquitin-protein ligase CHIP (Homo sapiens, UniProt Q9UNE7); experiment: Inhibition of GST-tagged human CHIP expressed in Escherichia coli BL21 (DE3) using NH2-EDASRMEEVD-COOH peptide as substrate preincubated for 15 mins followed by substrate addition measured after 15 mins by Alpha Screen assay
T3 sequence (Q9UNE7 whole entry): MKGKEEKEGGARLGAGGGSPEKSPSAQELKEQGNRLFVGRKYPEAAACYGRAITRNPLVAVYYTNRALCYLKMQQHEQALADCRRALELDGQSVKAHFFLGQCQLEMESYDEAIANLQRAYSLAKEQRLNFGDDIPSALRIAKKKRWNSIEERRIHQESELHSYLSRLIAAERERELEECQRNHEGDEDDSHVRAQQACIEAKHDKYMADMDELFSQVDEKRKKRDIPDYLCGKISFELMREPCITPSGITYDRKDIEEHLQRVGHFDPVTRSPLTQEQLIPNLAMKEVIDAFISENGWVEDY

[4] = molecular target: Stress-induced-phosphoprotein 1 (Homo sapiens, UniProt P31948); experiment: Inhibition of GST-tagged human HOP expressed in Escherichia coli BL21 (DE3) using NH2-EDASRMEEVD-COOH peptide as substrate preincubated for 15 mins followed by substrate addition measured after 15 mins by Alpha Screen assay
[5] = molecular target: Small glutamine-rich tetratricopeptide repeat-containing protein alpha (Homo sapiens, UniProt O43765); experiment: Inhibition of GST-tagged human SGTA expressed in Escherichia coli BL21 (DE3) using NH2-EDASRMEEVD-COOH peptide as substrate preincubated for 15 mins followed by substrate addition measured after 15 mins by Alpha Screen assay
[6] = molecular target: T4, Mitochondrial import receptor subunit TOM34 (Homo sapiens, UniProt Q15785); experiment: Inhibition of GST-tagged human TOM34 expressed in Escherichia coli BL21 (DE3) using NH2-EDASRMEEVD-COOH peptide as substrate preincubated for 15 mins followed by substrate addition measured after 15 mins by Alpha Screen assay
T4 sequence (Q15785 whole entry): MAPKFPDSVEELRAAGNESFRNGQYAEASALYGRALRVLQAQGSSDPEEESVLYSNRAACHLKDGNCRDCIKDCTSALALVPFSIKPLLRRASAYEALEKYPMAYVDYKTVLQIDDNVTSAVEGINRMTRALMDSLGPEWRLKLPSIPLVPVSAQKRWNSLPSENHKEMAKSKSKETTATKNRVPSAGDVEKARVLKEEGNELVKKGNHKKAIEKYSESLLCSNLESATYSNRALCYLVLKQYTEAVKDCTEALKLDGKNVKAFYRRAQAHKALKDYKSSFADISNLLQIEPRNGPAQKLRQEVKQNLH

[7] = molecular target: T5, Mitochondrial import receptor subunit TOM70 (Homo sapiens, UniProt O94826); experiment: Inhibition of GST-tagged human TOM70 expressed in Escherichia coli BL21 (DE3) using NH2-EDASRMEEVD-COOH peptide as substrate preincubated for 15 mins followed by substrate addition measured after 15 mins by Alpha Screen assay
T5 sequence (O94826 whole entry): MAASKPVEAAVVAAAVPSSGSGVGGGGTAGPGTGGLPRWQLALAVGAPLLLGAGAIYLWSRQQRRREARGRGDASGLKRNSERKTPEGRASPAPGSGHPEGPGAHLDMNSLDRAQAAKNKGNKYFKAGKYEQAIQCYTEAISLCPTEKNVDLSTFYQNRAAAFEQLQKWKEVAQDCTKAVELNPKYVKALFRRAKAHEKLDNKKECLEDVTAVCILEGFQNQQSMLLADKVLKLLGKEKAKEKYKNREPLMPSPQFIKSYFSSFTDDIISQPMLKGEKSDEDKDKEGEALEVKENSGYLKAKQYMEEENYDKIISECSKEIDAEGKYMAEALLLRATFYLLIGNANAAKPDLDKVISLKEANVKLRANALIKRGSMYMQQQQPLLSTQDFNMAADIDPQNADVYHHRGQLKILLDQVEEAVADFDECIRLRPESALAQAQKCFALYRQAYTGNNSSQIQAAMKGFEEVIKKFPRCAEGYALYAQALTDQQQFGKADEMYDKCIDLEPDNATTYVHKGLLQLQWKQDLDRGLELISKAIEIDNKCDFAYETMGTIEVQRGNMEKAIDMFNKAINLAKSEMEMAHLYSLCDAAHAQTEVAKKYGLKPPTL

Stress-induced-phosphoprotein 1, sequence (P31948 whole entry): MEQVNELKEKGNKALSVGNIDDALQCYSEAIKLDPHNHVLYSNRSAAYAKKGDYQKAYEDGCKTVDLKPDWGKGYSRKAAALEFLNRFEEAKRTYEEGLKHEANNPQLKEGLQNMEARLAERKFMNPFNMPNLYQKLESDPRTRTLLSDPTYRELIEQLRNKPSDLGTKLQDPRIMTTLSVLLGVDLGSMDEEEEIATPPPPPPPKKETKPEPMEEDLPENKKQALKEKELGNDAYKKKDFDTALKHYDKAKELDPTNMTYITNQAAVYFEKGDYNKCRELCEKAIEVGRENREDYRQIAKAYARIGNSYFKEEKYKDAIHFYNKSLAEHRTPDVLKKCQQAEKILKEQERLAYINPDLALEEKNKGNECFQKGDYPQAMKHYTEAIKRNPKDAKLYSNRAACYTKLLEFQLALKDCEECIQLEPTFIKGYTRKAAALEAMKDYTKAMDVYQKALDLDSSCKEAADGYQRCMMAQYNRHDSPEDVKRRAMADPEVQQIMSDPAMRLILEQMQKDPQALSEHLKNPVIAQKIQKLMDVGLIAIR
Small glutamine-rich tetratricopeptide repeat-containing protein alpha, sequence (O43765 whole entry): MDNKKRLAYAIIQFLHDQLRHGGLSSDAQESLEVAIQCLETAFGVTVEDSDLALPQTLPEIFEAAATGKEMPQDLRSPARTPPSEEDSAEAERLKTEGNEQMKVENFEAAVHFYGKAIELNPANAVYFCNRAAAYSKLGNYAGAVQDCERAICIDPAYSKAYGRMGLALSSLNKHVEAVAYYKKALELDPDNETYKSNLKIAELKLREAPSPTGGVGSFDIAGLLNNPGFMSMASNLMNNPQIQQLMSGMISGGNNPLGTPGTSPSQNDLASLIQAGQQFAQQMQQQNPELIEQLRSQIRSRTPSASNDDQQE

| Compound | IC50 [1] [µM] | IC50 [2] [µM] | IC50 [3] [µM] | IC50 [4] [µM] | IC50 [5] [µM] | IC50 [6] [µM] | IC50 [7] [µM] |
| --- | --- | --- | --- | --- | --- | --- | --- |
| Cc1sc(NC(=O)CCCC(=O)Nc2sc(C)c(C)c2C(N)=O)c(C(N)=O)c1C | 5 | 2 | 2.5 | 10 | 2 | 3 | 1.2 |
| COC(=O)c1c(NC(=O)CSc2nnc(-c3ccco3)c(-c3ccco3)n2)sc(C)c1C | 3 | 2.5 | 2.5 | 5 | 6 | 4 | 5 |
